# Values joined by “and” are separate entries in the source; they are usually repeats but may differ in a detail not shown here. Identical values can stand only once. Like-named read-outs stand apart in the source and are kept apart here. Marks after values point to notes of the source that are not given here. Square brackets hold non-standard residues; d marks the D form. Peptide text beside a SMILES is read from it. Nphe = O=C(O)CNCc1ccccc1; NPrGly = CCCNCC(=O)O
# What was measured:
# [1] = test system: P. aeruginosa PA103 T3SS (ExoU secretion); format: cell-based, Pseudomonas aeruginosa
# [2] = test system: Y. pseudotuberculosis Ysc T3SS (YopE secretion); format: cell-based, Yersinia pseudotuberculosis
# [3] = test system: Y. enterocolitica Ysa T3SS (YspF secretion); format: cell-based, Yersinia enterocolitica
# [4] = test system: Salmonella enterica Typhimurium SPI-1 T3SS (SipA, SipC secretion); format: cell-based
# [5] = test system: Salmonella flagellar T3SS (FliC, FliD secretion); format: cell-based, Salmonella enterica Typhimurium; set-up: key to Fla fliC (Table 2): NE: No effect observed
# [6] = test system: C. trachomatis serovar L2 in HeLa cells; assay: Chlamydia infection of HeLa cells (primary and secondary infection); format: cell-based, Chlamydia trachomatis
# Procedure: Primary infections. HeLa cell monolayers were infected with C. trachomatis serovar L2 at a multiplicity of infection (MOI) of 1.0 in the presence of one of the following compounds at 9 μM: DMSO, 4EpDN, or 4EpDN 2Sar. Cells were incubated for 24 h in the presence of the above-listed compounds at 37°C and then fixed with 4% paraformaldehyde (PFA). Cells were stained for IncA (Chlamydia inclusion membrane marker), DNA (with DAPI), and MOMP (Chlamydia major outer membrane protein) simultaneously. This method of staining allows visualization of the inclusion independent of MOMP synthesis or transport. The percentage of cells infected (i.e., stained positively for the listed Chlamydia markers) in the presence of the compounds was quantified using confocal microscopy. Quantifications of inclusion take into account both DAPI staining and indirect immunofluoresence with an antibody to MOMP. Ten randomly selected fields of view were measured per experiment. The data represent three biological replicates.
# Secondary infections. HeLa cell monolayers were infected with C. trachomatis serovar L2 at an MOI of 1.0 in the presence of one of the following compounds at 9 μM: DMSO, 4EpDN, or 4EpDN 2Sar. Cells were incubated for 48 h in the presence of the above-listed compounds at 37°C. Infected cells were then lysed, and the lysate was applied to fresh HeLa monolayers to enumerate infectious particles. These secondary infections were fixed in 4% PFA at 24 hpi and were stained against MOMP and DNA. The infectious units per ml (IFU/ml) were calculated by averaging the number of infected cells in each of 10 randomly selected fields of view at ×40 magnification on a confocal microscope and multiplying this by the appropriate dilution and area factors. The data represent four biological replicates.
# [7] = test system: Y. pseudotuberculosis twin arginine translocation (Tat) system; format: cell-based, Yersinia pseudotuberculosis; conditions: culture optical density, 4 and 6 h
# [8] = test system: P. aeruginosa PA103 T3SS (ExsE secretion); format: cell-based, Pseudomonas aeruginosa
# P. aeruginosa (PAO1) = format: cell-based, Pseudomonas aeruginosa
# Y. pseudotuberculosis = format: cell-based, Yersinia pseudotuberculosis; conditions: 2xYT, 9-120 µM, 12 h
# Kinetic solubility = format: physicochemical
# Procedure: […] Then, […] of 15 mM stock compound was added to make a solution of 120 μM final concentration with 0.8% DMSO. The solution was shaken at 37°C for ∼2 h. The solution was passed over a 0.7- μM glass fiber filter. Then, the solution was diluted 1:4 in acetonitrile to crash out any proteins. The solution was centrifuged at 500 × g for 10 min. Avoiding the pellet, 10 μl of supernatant was added to a fresh plate with 90 μl of acetonitrile. The final dilution is 40 times lower. Next, 10 μl of 40× dilution of solution was injected on the Orbi-trap. A 1 μM standard was used for the ratiometric comparison, and the assay was done in triplicate.
# [9] = test system: Salmonella T3SS genes (hilA, hilD, invF, sipC, sipA, fliC); assay: mRNA quantification by qPCR of T3SS genes; format: cell-based, Salmonella enterica Typhimurium; conditions: 9 µM, 2 h and 4 h
# Procedure: Samples were taken after 3 h of induction. Overnight Salmonella cultures were subcultured into fresh LB with 0.3 M NaCl at 37°C in the presence of 9 μM 4EpDN, 4EpDN 2Sar, or equivalent DMSO. Samples were taken after 2 h and 4 h of induction. Samples were stored in RNAprotect reagent (Qiagen) and processed within a week. Total RNA was isolated using an RNAeasy kit (Qiagen) according to the manufacturer’s instructions, followed by two rounds of Turbo DNase (Thermo Fisher scientific) treatment. A total of 2 μg of RNA was used to make cDNA, and quantitative PCRs (qPCRs) were run with SYBR green PCR master mix (Applied Biosystems). DNA helicase (dnaB) and 16S rRNA genes were used as a reference for P. aeruginosa and Salmonella samples, respectively. Two to three technical replicates were averaged for each sample. Results were analyzed using Bio-Rad CFX software.
# HeLa cells = assay: Cytological profiling (CP); format: cell-based; conditions: concentration used in Chlamydia infection
# Procedure: Briefly, HeLa cells were cultured and seeded into 384-well plates at 2,500 cells/well. After 48 h, compounds were added using a Janus MDT robot (PerkinElmer). Two stain sets were used—stain set 1, Hoechst, EdUrhodamine, anti-phosphohistone H3, and GM130; stain set 2, Hoechst, fluorescein isothiocyanate (FITC)-alpha tubulin, rhodamine-phalloidin, and calnexin. For stain set 1, cells were incubated with 20 μM EdUrhodamine for 1 h prior to fixing in 4% formaldehyde solution in PBS for 20 min. Cells were then washed with PBS and permeabilized with 0.5% Triton X-100 in PBS for 10 min before blocking with 2% BSA in PBS solution for at least 1 h. Following this, cells were incubated with primary antibodies overnight at 4°C. The following day, excess primary antibody was washed off with PBS and Alexa-488, and Alexa-647 secondary antibodies and Hoechst solution were incubated for 1 h. Plates were washed with PBS and preserved with 0.1% sodium azide in PBS solution prior to imaging. For stain set 2, cells were fixed with a 4% formaldehyde solution in PBS for 20 min. Cells were then washed with PBS and permeabilized with 0.5% Triton X-100 in PBS for 10 min before blocking with 2% BSA in PBS solution for at least 1 h. Following this, cells were incubated with primary antibodies overnight at 4°C. […]
# [10] = test system: Salmonella enterica Typhimurium SPI-1 T3SS; conditions: culture-based secretion assay; ref [102]; read-out: IC50, SipC secretion; cited from earlier work
# flagella (Fla), fliC = test system: flagella (Fla), fliC; set-up: key: NE: No effect observed; conditions: ref [102]; cited from earlier work
compound,measurement,setting,value
"CCCN1CC(=O)N(Cc2ccccc2)CC(=O)N[C@@H](CC(C)C)C(=O)N[C@@H]([C@@H](C)CC)C(=O)N[C@H](CC(C)C)C(=O)N[C@H](Cc2ccccc2)C1=O [4EpDN, 4-EpD1,2N] (cyclo(I[dL][dF][NPrGly][Nphe]L))",fold more potent than its parental compound,[1],2 fold
same,inhibition of ExoU secretion,[1]; 9 µM,~75%
same,inhibition of ExoU secretion,[1]; 60 µM,~75%
same,IC50,"[1]; read-out: IC50, inhibition of secretion of T3SS effector ExoU",3.9 µM
same,"lowest known inhibitory concentration (∼), YopE secretion","[2]; Table 2, Ysc, culture-based secretion assay",∼7.5 YopE^b μM
same,"T3SS effector secretion inhibited, fold",[2]; same concentration as YscF staining (60 μM),4 fold
same,IC50,[3],16.1 µM
same,"secretion of YspF, in words",[3],inhibited secretion of YspF in a dose-dependent manner
same,IC50,"[4]; read-out: IC50, SipAC secretion (SPI-1 T3SS)",1 µM
same,IC50,"[4]; read-out: IC50, SipC secretion",~1 µM and ~0.8 µM
same,Fla fliC (Table 2),[5],NE^d
same,concentration inhibiting FliC secretion,[5],≥ 60 µM
same,inhibition of formation of infectious progeny,"[6]; 9 μM, EBs collected at 48 hpi, fresh monolayers 24 h",~98%
same,decrease of primary inclusion formation,"[6]; 9 μM, HeLa cells, 24 hpi",~50%
same,"lowest known inhibitory concentration (∼), cell-based infection assay, Chlamydia","[6]; Table 2, Chlamydiales",∼9^c μM
same,"growth of SufI-β-lactamase Tat reporter bacteria in penicillin G / Tat inhibition, in words",[7],does not inhibit the Tat secretion system
same,inhibition of ExsE secretion,[8]; 9 µM,did not significantly inhibit
same,inhibition of ExsE secretion,[8]; 60 µM,~40%
same,bacterial viability in broth culture,P. aeruginosa (PAO1),did not affect bacterial viability
same,bacterial viability in broth culture,Y. pseudotuberculosis,did not affect bacterial viability
same,solubility kinetic,Kinetic solubility,13 µM
same,solubility,Kinetic solubility; DMEM (no antibiotics),12 µM
same,solubility,Kinetic solubility; M9,10 µM
same,"expression of T3SS genes (qPCR), in words",[9],nor did it impact T3SS gene transcription
same,"changes to actin cytoskeleton, Golgi network, endoplasmic reticulum, microtubule network",HeLa cells,did not show any gross changes
CCCCCCCC(=O)c1c(O)cc(O)cc1CC(=O)OCC [Cytosporone B],IC50,[10],6.25 µM
same,Fla fliC,"flagella (Fla), fliC",NE^d

# Reference: paper PMC8373237 (Antimicrobial Agents and Chemotherapy, 2021)
